The term Ki denotes the dissociation constant of the complex between target and ligand, obtained from inhibition or displacement. A higher Ki goes with lower affinity. Broadly, the IC50 is the concentration that inhibits the measured activity by half. Higher therefore signals weaker potency in that assay.

Experimental findings from paper PMC6762200, “Discovery of novel West Nile Virus protease inhibitor based on isobenzonafuranone and triazolic derivatives of eugenol and indan-1,3-dione scaffolds” (PLoS ONE, 2019) are described below.

The target of experiment [1] is T1, WNV NS2B-NS3 protease (NS2B-NS3pro) (West Nile virus strain NY-99, UniProt Q9Q6P4).
T1 construct: gene GP1; cut from WNV genome polyprotein; with Serine protease subunit NS2B (cofactor region)
T1 sequence (Q9Q6P4 1423-1469): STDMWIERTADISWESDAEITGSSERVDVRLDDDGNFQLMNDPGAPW
T1 sequence (Q9Q6P4 1506-1689): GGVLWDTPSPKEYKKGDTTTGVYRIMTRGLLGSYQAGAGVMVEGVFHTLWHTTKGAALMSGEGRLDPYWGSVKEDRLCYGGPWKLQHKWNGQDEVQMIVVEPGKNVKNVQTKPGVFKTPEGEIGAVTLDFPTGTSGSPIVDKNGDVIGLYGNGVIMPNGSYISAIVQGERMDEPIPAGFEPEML
The experiment is described as follows: fluorogenic protease assay, pERTKR-AMC, nonlinear fit in competitive mode. Type of experiment: biochemical.

For experiment [2], the target named is T1, WNV NS2B-NS3 protease (NS2B-NS3pro). The experiment is described as follows: fluorogenic protease assay, pERTKR-AMC, four-parameter fit, […] concentrations. Type of experiment: biochemical.

In the case of `C=CCc1ccc(OCc2cn(Cc3ccccc3Br)nn2)c(OC)c1` [compound 35, 4-((4-allyl-2-methoxyphenoxy)methyl)-1-(2-bromobenzyl)-1H-1,2,3-triazole], the Ki in experiment [1] worked out at 3.06 µM. The compound also came in with an IC50 in experiment [2] of 6.86 µM.
